{"source": "patent US12023346B1", "about": "“Compositions and methods for treating epilepsy” (POVIVA CORP, priority 2023, dated 2024)", "origin": "cited, not measured here", "note": "Read-outs that look alike come from different tables or passages of the source.", "data": [{"molecule": "C=C(C)[C@@H]1CCC(C)=C[C@H]1c1c(O)cc(CCCCC)cc1O", "note": "[Cannabidiol, 2-[(1R,6R)-6-Isopropenyl-3-methylcyclohex-2-en-1-yl]-5-pentylbenzene-1,3-diol]", "values": [{"measurement": "Plasma concentration on Day 22 at target CBD dose, 5 hours, Mean (SD)", "setting": "5 mg/kg/day (N = 10)", "result": "72.1 (49.0) ng/mL"}, {"measurement": "Plasma concentration on Day 22 at target CBD dose, […], Mean (SD)", "setting": "5 mg/kg/day (N = 10)", "result": "130 (170) ng/mL"}, {"measurement": "Plasma concentration on Day 1 at starting CBD dose, 5 hours, Mean (SD)", "setting": "5 mg/kg/day group (N = 10)", "result": "10.0 (5.74) ng/ml"}, {"measurement": "Plasma concentration on Day 1 at starting CBD dose, Pre-dose, Mean (SD)", "setting": "5 mg/kg/day group (N = 10)", "result": 0, "unit": "ng/mL"}, {"measurement": "Plasma concentration on Day 1 at starting CBD dose, […], Mean (SD)", "setting": "5 mg/kg/day group (N = 10)", "result": "37.6 (53.7) ng/ml"}, {"measurement": "Plasma concentration on Day 22 at target CBD dose, 5 hours, Mean (SD)", "setting": "10 mg/kg/day (N = 8)", "result": "288 (345) ng/mL"}, {"measurement": "Plasma concentration on Day 22 at target CBD dose, […], Mean (SD)", "setting": "10 mg/kg/day (N = 8)", "result": "242 (159) ng/mL"}, {"measurement": "Plasma concentration on Day 1 at starting CBD dose, 5 hours, Mean (SD)", "setting": "10 mg/kg/day group (N = 8)", "result": "11.3 (11.7) ng/ml"}, {"measurement": "Plasma concentration on Day 1 at starting CBD dose, Pre-dose, Mean (SD)", "setting": "10 mg/kg/day group (N = 8)", "result": 0, "unit": "ng/mL"}, {"measurement": "Plasma concentration on Day 1 at starting CBD dose, […], Mean (SD)", "setting": "10 mg/kg/day group (N = 8)", "result": "34.4 (32.1) ng/ml"}, {"measurement": "Plasma concentration on Day 22 at target CBD dose, 5 hours, Mean (SD)", "setting": "20 mg/kg/day (N = 9)", "result": "308 (321) ng/mL"}, {"measurement": "Plasma concentration on Day 22 at target CBD dose, […], Mean (SD)", "setting": "20 mg/kg/day (N = 9)", "result": "380 (370) ng/mL"}, {"measurement": "Plasma concentration on Day 1 at starting CBD dose, 5 hours, Mean (SD)", "setting": "20 mg/kg/day group (N = 9)", "result": "25.3 (42.4) ng/ml"}, {"measurement": "Plasma concentration on Day 1 at starting CBD dose, Pre-dose, Mean (SD)", "setting": "20 mg/kg/day group (N = 9)", "result": 0, "unit": "ng/mL"}, {"measurement": "Plasma concentration on Day 1 at starting CBD dose, […], Mean (SD)", "setting": "20 mg/kg/day group (N = 9)", "result": "29.3 (28.5) ng/ml"}]}]}
